Source: patent US10351500B2, “Method of using of dihydro-resveratrol or its stilbenoid derivatives and/or chemical variants as antimicrobial agents” (Hong Kong Baptist University, priority 2015, dated 2019)

Legend:
pancreatic acinar cells = type: cell-based; conditions: rat, 24 h
Procedure: Functional intact acini were dissociated from pancreatic tissue using collagenase digestion with mild shearing forces. Acini were cultured in Dulbecco's modification of Eagle's medium (GIBCO) supplemented with 5% fetal bovine serum (GIBCO), 1% penicillin-streptomycin (GIBCO) in a 5% CO2, 95% air humidified atmosphere at 37° C. […] MTT reagent was added to the cells at the end of the 24-hour treatment period. After a 3-hour reaction time, MTT products were dissolved in DMSO and absorbance at 570 nm was taken.

[1] = test system: cerulein-induced chronic pancreatitis; experiment: cerulein-induced chronic pancreatitis in mice, oral treatment; type: in vivo, C57/BL6 mice
Procedure: Evaluation of biological activities. C57/BL6 mice aged 28 days weighing in the range of 20 to 25 g were randomly assigned into 4 groups of 6 to 8 individuals. The mice were housed with an ambient temperature of 23±2° C., a relative humidity of 60 to 80% and a 12-h light/dark cycle. Prior to the glucose tolerance test, the mice were starved overnight but allowed with free access to water. Experimental chronic pancreatitis was induced in the mice by four hourly i.p. injections of cerulein at the supramaximally stimulating dose (50 μg/kg) a day, 3 days a week, in a total of 6 weeks. The control group received injections of 0.9% saline instead of cerulein in the same volume and at same time intervals. The treatment groups given with cerulein and oral doses of dihydro-resveratrol (20 mg/kg/day) were designated as Cer+D-res. […] Thus, it concludes that an effective dosage of dihydro-resveratrol is at least 20 mg/kg/day. […] At the end of the 6-week experiment, mice were subjected to the intraperitoneal glucose tolerance test (IPGTT). Mice had been starved for 14 hours prior to the IPGTT, in which a 15% (w/v) glucose solution was injected to individual animals at 1.5 g glucose per kg body weight. About 1 μL of blood will be obtained from the tail vein, and blood glucose levels were monitored 30 min before (i.e. fasting level) and 10, 20, 30 and 60 min after glucose injection using a glucometer (Medisign, Korea). Upon scarification, pancreases were immediately removed, weighed, trimmed from fat and fixed in 4% paraformaldehyde-phosphate buffered saline overnight at 4° C. Samples were then processed, embedded in paraffin wax, sectioned and subjected to immunostaining.

[2] = ABTS radical decolorization assay (antioxidant capacity); type: biochemical; conditions: 15 min, 734 nm
[3] = test system: skin color at the arms of individual human subjects; experiment: skin colorimeter ITA° measurement after topical stilbenoid solution; type: in vivo
Procedure: To determine the skin color of the individual human subjects, the initial skin conditions at the arms of the individuals are tested by the skin colorimeter MPA 5 on day 0. The individual typology angle (ITA°) is calculated by the colorimeter based on the luminance (L*) and yellow-blue component (b*) values. The greater the ITA° value, the greater the skin whiteness [S. Del Bino and F. Bernerd. Variations in skin colour and the biological consequences of ultraviolet radiation exposure. British Journal of Dermatology 2013; 169 (Suppl. 3), 33-40]. In fact, skin colors are classified into 6 major divisions: very light, light, intermediate, tan, brown and dark as listed in Table 4. Two areas (2 cm×2 cm each) are selected as treated areas whereas regions surrounding the treated areas on the arms are regarded as control areas. A volume of 200 μL of the testing stilbenoids (2% by weight dissolved in ethanol) is applied to the designated area twice a day, day and night. At the end of the first week (day 7), individuals are tested with the skin colorimeter for recording the data about using the stilbenoids for 7 days. Again, at the end of the second week (day 14), individuals are tested with the skin colorimeter for recording the data about using the stilbenoids for 14 days.

[4] = test system: human embryonic kidney HEK293 cell line; experiment: MTT cell viability assay, HEK293; type: cell-based
Procedure: (§1) The human colorectal carcinoma HCT-116 cell line, human pancreatic ductal adenocarcinoma PANC-1 cell line, human melanoma A375 cell line and human embryonic kidney HEK293 cell line were purchased from the American Type Culture Collection. Cells were cultured in high glucose DMEM growth medium supplemented with 10% fetal bovine serum, penicillin and streptomycin (100 U) in a humidified atmosphere of 5% CO2, 95% air at 37° C. Upon the addition of dihydro-resveratrol (D-res) to the HCT-116, PANC-1, A375 or HEK293 cells seeded at a density of 8000 cells per well in a 96-well plate format, the viability of the testing cells was determined 24 h post treatment using the (3-(4,5-dimethylthiazol-2-yl)-2,5-diphenyltetrazolium bromide) tetrazolium (MTT) reduction assay and expressed as growth inhibition of 50% (GI50, Table 6).

[5] = test system: human pancreatic ductal adenocarcinoma PANC-1 cell line; experiment: MTT cell viability assay, PANC-1; type: cell-based; conditions: PANC-1 pancreatic ductal adenocarcinoma, 24 h
Procedure: as §1

[6] = test system: A375 human melanoma cells; experiment: cell migration assay, A375; type: cell-based; conditions: A375, 25 μM, 24-h treatment
Trichophyton rubrum = experiment: anti-fungal growth inhibition, T. rubrum; type: cell-based; conditions: Trichophyton rubrum, 168 h

## Oc1ccc(CCc2cc(O)cc(O)c2)cc1 [Dihydro-resveratrol, trans-3,5,4′-trihydroxybibenzyl]
Pancreatic acinar cells
  cytotoxicity (MTT, mitochondrial metabolic rates): approximately 500 μM
[1]
  fibrosis formation, 50 mg/kg/day versus 20 mg/kg/day: no statistically significant difference
[1]; 20 mg/kg/day oral
  pancreatic beta-cell area (insulin immunofluorescence): restoration of beta-cell area
[1]; 20 mg/kg/day oral, 3 weeks
  FN1 deposition in pancreatic parenchyma: reduces such deposition
  impaired glucose tolerance (IPGTT): significantly rectified
[1]; 50 mg/kg/day
  adverse effect: no adverse effect
[2]
  Trolox equivalent (mg), antioxidant capacity: 4969.611 mg
[3]; 2% by weight in ethanol, topical twice a day, most individuals
  whitening effect on skin: Overt whitening effect
[3]; Individual No. 1, day 7, 2% solution topical
  ITA° measurement: 49.0 ± 1.732 °
[3]; Individual No. 1, day 14, 2% solution topical
  ITA° measurement: 52.4 ± 1.166 °
[3]; Individual No. 2, day 7, 2% solution topical
  ITA° measurement: 41.1 ± 3.391 °
[3]; Individual No. 2, day 14, 2% solution topical
  ITA° measurement: 49.8 ± 4.630 °
[3]; Individual No. 3, day 7, 2% solution topical
  ITA° measurement: 35.0 ± 1.000 °
[3]; Individual No. 3, day 14, 2% solution topical
  ITA° measurement: 33.8 ± 0.837 °
[3]; Individual No. 4, day 7, 2% solution topical
  ITA° measurement: 26.8 ± 2.371 °
[3]; Individual No. 4, day 14, 2% solution topical
  ITA° measurement: 35.2 ± 2.103 °
[3]; Individual No. 5, day 7, 2% solution topical
  ITA° measurement: 25.6 ± 1.817 °
[3]; Individual No. 5, day 14, 2% solution topical
  ITA° measurement: 27.8 ± 1.934 °
[3]; Individual No. 6, day 7, 2% solution topical
  ITA° measurement: 26.4 ± 2.649 °
[3]; Individual No. 6, day 14, 2% solution topical
  ITA° measurement: 34.6 ± 0.927 °
[3]; Individual No. 7, day 7, 2% solution topical
  ITA° measurement: 21.2 ± 0.837 °
[3]; Individual No. 7, day 14, 2% solution topical
  ITA° measurement: 23.8 ± 2.634 °
[3]; Individual No. 8, day 7, 2% solution topical
  ITA° measurement: 14.0 ± 2.345 °
[3]; Individual No. 8, day 14, 2% solution topical
  ITA° measurement: 16.2 ± 1.483 °
[3]; Individual No. 9, day 7, 2% solution topical
  ITA° measurement: −5.2 ± 0.837 °
[3]; Individual No. 9, day 14, 2% solution topical
  ITA° measurement: −2.2 ± 0.447 °
[4]; Homo sapiens, HEK293 embryonic kidney (serves as normal control), 24 h, MTT
  GI50: 244.1 ± 0.96 µM
[4]; Table 6
  selectivity implied by GI50 values (carcinoma cells vs HEK293): selectivity towards carcinoma cells
[5]
  GI50: 116 ± 3.09 µM
[6]
  migratory ability: significant reduction in the migratory ability
Trichophyton rubrum; read-out: Inhibition rate (25 μM)
  inhibition at 25 µM: 2.75%
Trichophyton rubrum; read-out: Inhibition rate (50 μM)
  inhibition at 50 µM: 6.84%
Trichophyton rubrum; read-out: Inhibition rate (100 μM)
  inhibition at 100 µM: 22.5%
